Results published in patent US20240317780A1, “RADIOPHARMACEUTICAL SOMATOSTATIN RECEPTOR LIGANDS AND PRECURSORS THEREOF” (Technische Universität München, priority 2021, published 2024).
Where two headings read alike, the source gives them in different places.

Assays:
SST2 = molecular target: T1, SST2 (Homo sapiens, UniProt P30874); experiment: Determination of IC50: competitive binding against [125I]TOC on SST2-transfected CHO cells; conditions: [125I]TOC reference radioligand, 60 min room temperature
T1 construct: expressed in transfected cells; host or cells: CHO (Chinese hamster ovary) cells
T1 sequence (P30874 whole entry, species assumed): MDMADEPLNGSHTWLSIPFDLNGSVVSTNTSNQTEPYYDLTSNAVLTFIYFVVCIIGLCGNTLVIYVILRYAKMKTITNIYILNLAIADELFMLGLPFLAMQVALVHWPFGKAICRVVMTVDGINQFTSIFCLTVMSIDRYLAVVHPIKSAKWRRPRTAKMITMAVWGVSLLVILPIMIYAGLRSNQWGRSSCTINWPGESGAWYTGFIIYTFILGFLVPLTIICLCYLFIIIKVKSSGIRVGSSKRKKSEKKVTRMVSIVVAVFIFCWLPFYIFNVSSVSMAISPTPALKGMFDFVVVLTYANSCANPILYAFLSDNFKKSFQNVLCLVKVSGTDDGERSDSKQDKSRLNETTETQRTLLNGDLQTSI

[1] = Biodistribution of 18F-labeled SST2 ligands in AR42J tumor-bearing mice; assay type: in vivo; conditions: female, CD1 nu/nu, mouse, iv, total radioactivity, 1 h post injection
Experimental: All animal experiments were conducted in accordance with general animal welfare regulations in Germany and the institutional guidelines for the care and use of animals. To establish tumor xenografts, AR42J cells (5×10^6 cells/100 μL) were suspended in Dulbecco modified Eagle medium/Nutrition Mixture F-12 with Glutamax-1 (1:1) and inoculated subcutaneously onto the right shoulder of 8 weeks old, female CD1 nu/nu mice (Charles River, Sulzfeld, Germany). Mice were used for experiments when tumors had grown to a diameter of 5-9 mm (7-15 days after inoculation).
Approximately 0.5-2.0 MBq (0.05-0.25 nmol) of the ^18F-labeled SST2-ligands were injected into the tail vein of AR42J tumor-bearing female CD1 nu/nu mice and sacrificed after 1 h post injection (n=3-5). Selected organs were removed, weighted and measured in a γ-counter.
The Tables 4, 5, and 6 summarize the results of the in vivo mouse experiments. For all biodistribution studies, female CD1 nu/nu mice with AR42J tumor xenografts, were used and sacrificed 1 h post injection.

[2] = AR42J tumor, AR42J tumor, tail vein, read-out: Tumor % ID/g ± SD
[3] = adrenal glands, tail vein, read-out: Adrenal glands % ID/g ± SD
[4] = blood, tail vein, read-out: Blood % ID/g ± SD
[5] = bone, tail vein, read-out: Bone % ID/g ± SD
[6] = heart, tail vein, read-out: Heart % ID/g ± SD
[7] = intestine, tail vein, read-out: Intestine % ID/g ± SD
[8] = kidneys, tail vein, read-out: Kidneys % ID/g ± SD
[9] = liver, tail vein, read-out: Liver % ID/g ± SD
[10] = lung, tail vein, read-out: Lung % ID/g ± SD
[11] = muscle, tail vein, read-out: Muscle % ID/g ± SD
[12] = pancreas, tail vein, read-out: Pancreas % ID/g ± SD
[13] = spleen, tail vein, read-out: Spleen % ID/g ± SD
[14] = stomach, tail vein, read-out: Stomach % ID/g ± SD

With `C[C@@H](O)[C@H](NC(=O)C1CSSCC(NC(=O)C(Cc2ccccc2)NC(=O)CNC(=O)CNC(=O)[C@@H](CC(=O)O)NC(=O)C(CC(=O)O)NC(=O)[C@@H](CNC(=O)CN2CCN(CC(=O)O)CCN(CC(=O)O)CCN(CC(=O)O)CC2)NC(=O)C[N+](C)(C)Cc2ccc([Si](F)(C(C)(C)C)C(C)(C)C)cc2)C(=O)N[C@@H](Cc2ccc(O)cc2)C(=O)NC(Cc2c[nH]c3ccccc23)C(=O)N[C@@H](CCCCN)C(=O)N[C@@H]([C@@H](C)O)C(=O)N1)C(=O)O` (stereo partly drawn) (natGa complex, metal not drawn) [[Ga]24] the IC50 (SST2) was 9.48 ± 1.96 nM, the tissue uptake at 1 h [1, 2] was 23.9 ± 4.1 %ID/g and the tissue uptake at 1 h ([1]; AR42J tumor, AR42J tumor, Blocking study, read-out: Tumor % ID/g ± SD) was 6.1 ± 0.02 %ID/g. For the same molecule, the tissue uptake at 1 h [1, 3] was 1.52 ± 0.46 %ID/g, the tissue uptake at 1 h ([1]; adrenal glands, Blocking study, read-out: Adrenal glands % ID/g ± SD) was 0.54 ± 0.05 %ID/g and the tissue uptake at 1 h [1, 4] was 0.66 ± 0.32 %ID/g. It also gave a tissue uptake at 1 h ([1]; blood, Blocking study, read-out: Blood % ID/g ± SD) of 1.24 ± 0.61 %ID/g, a tissue uptake at 1 h [1, 5] of 1.32 ± 0.19 %ID/g and a tissue uptake at 1 h ([1]; bone, Blocking study, read-out: Bone % ID/g ± SD) of 0.77 ± 0.07 %ID/g. For the same molecule, the tissue uptake at 1 h [1, 6] was 0.34 ± 0.09 %ID/g, the tissue uptake at 1 h ([1]; heart, Blocking study, read-out: Heart % ID/g ± SD) was 0.53 %ID/g and the tissue uptake at 1 h [1, 7] was 1.41 ± 0.19 %ID/g. The tissue uptake at 1 h ([1]; intestine, Blocking study, read-out: Intestine % ID/g ± SD) was 0.71 ± 0.04 %ID/g, the tissue uptake at 1 h [1, 8] was 13.6 ± 3.58 %ID/g and the tissue uptake at 1 h ([1]; kidneys, Blocking study, read-out: Kidneys % ID/g ± SD) was 18.2 ± 2.03 %ID/g. For the same molecule, the tissue uptake at 1 h [1, 9] was 1.05 ± 0.22 %ID/g, the tissue uptake at 1 h ([1]; liver, Blocking study, read-out: Liver % ID/g ± SD) was 1.82 ± 0.22 %ID/g and the tissue uptake at 1 h [1, 10] was 2.33 ± 0.1 %ID/g. The tissue uptake at 1 h ([1]; lung, Blocking study, read-out: Lung % ID/g ± SD) was 1.36 ± 0.13 %ID/g, the tissue uptake at 1 h [1, 11] was 0.09 ± 0.04 %ID/g and the tissue uptake at 1 h ([1]; muscle, Blocking study, read-out: Muscle % ID/g ± SD) was 0.21 ± 0.01 %ID/g. For the same molecule, the tissue uptake at 1 h [1, 12] was 9.28 ± 0.57 %ID/g, the tissue uptake at 1 h ([1]; pancreas, Blocking study, read-out: Pancreas % ID/g ± SD) was 1.07 ± 0.02 %ID/g and the tissue uptake at 1 h [1, 13] was 0.45 ± 0.05 %ID/g. For the same molecule, the tissue uptake at 1 h ([1]; spleen, Blocking study, read-out: Spleen % ID/g ± SD) was 0.33 %ID/g, the tissue uptake at 1 h [1, 14] was 4.95 ± 0.35 %ID/g and the tissue uptake at 1 h ([1]; stomach, Blocking study, read-out: Stomach % ID/g ± SD) was 1.01 ± 0.06 %ID/g.
With `C[C@@H](O)[C@H](NC(=O)C1CSSCC(NC(=O)C(Cc2ccccc2)NC(=O)CNC(=O)CNC(=O)CNC(=O)C(CC(=O)O)NC(=O)[C@@H](CC(=O)O)NC(=O)C(CCCNC(N)=O)NC(=O)[C@@H](CNC(=O)C[N+](C)(C)Cc2ccc([Si](F)(C(C)(C)C)C(C)(C)C)cc2)NC(=O)CN2CCN(CC(=O)O)CCN(CC(=O)O)CCN(CC(=O)O)CC2)C(=O)N[C@@H](Cc2ccc(O)cc2)C(=O)NC(Cc2c[nH]c3ccccc23)C(=O)N[C@@H](CCCCN)C(=O)N[C@@H]([C@@H](C)O)C(=O)N1)C(=O)O` (stereo partly drawn) (natGa complex, metal not drawn) [[Ga]46] the IC50 (SST2) was 4.79 ± 0.84 nM, the tissue uptake at 1 h [1, 2] was 23.4 ± 1.07 %ID/g and the tissue uptake at 1 h [1, 3] was 1.71 ± 0.38 %ID/g. It also gave a tissue uptake at 1 h [1, 4] of 0.57 ± 0.24 %ID/g, a tissue uptake at 1 h [1, 5] of 1.21 ± 0.24 %ID/g and a tissue uptake at 1 h [1, 6] of 0.3 ± 0.04 %ID/g. The tissue uptake at 1 h [1, 7] was 1.43 ± 0.35 %ID/g, the tissue uptake at 1 h [1, 8] was 12.6 ± 1.58 %ID/g and the tissue uptake at 1 h [1, 9] was 0.83 ± 0.14 %ID/g. The tissue uptake at 1 h [1, 10] was 3.22 ± 0.53 %ID/g, the tissue uptake at 1 h [1, 11] was 0.1 ± 0.02 %ID/g and the tissue uptake at 1 h [1, 12] was 11.1 ± 2.61 %ID/g. For the same molecule, the tissue uptake at 1 h [1, 13] was 0.57 ± 0.14 %ID/g and the tissue uptake at 1 h [1, 14] was 6.51 ± 1.64 %ID/g.
Work on `C[C@@H](O)[C@H](NC(=O)C1CSSCC(NC(=O)C(Cc2ccccc2)NC(=O)CNC(=O)CNC(=O)[C@@H](CC(=O)O)NC(=O)C(CC(=O)O)NC(=O)[C@@H](CNC(=O)CN2CCN(CC(=O)O)CCN(CC(=O)O)CCN(CC(=O)O)CC2)NC(=O)C(CN)NC(=O)c2ccc([Si](F)(C(C)(C)C)C(C)(C)C)cc2)C(=O)N[C@@H](Cc2ccc(O)cc2)C(=O)NC(Cc2c[nH]c3ccccc23)C(=O)N[C@@H](CCCCN)C(=O)N[C@@H]([C@@H](C)O)C(=O)N1)C(=O)O` (stereo partly drawn) (natGa complex, metal not drawn) [[Ga]19] yielded an IC50 (SST2) of 11.2 ± 1.04 nM, a tissue uptake at 1 h [1, 2] of 36.3 ± 4.54 %ID/g and a tissue uptake at 1 h [1, 3] of 2.56 ± 0.21 %ID/g. The tissue uptake at 1 h [1, 4] was 2.24 ± 0.3 %ID/g, the tissue uptake at 1 h [1, 5] was 1.96 ± 0.38 %ID/g and the tissue uptake at 1 h [1, 6] was 0.88 ± 0.11 %ID/g. It also gave a tissue uptake at 1 h [1, 7] of 1.39 ± 0.24 %ID/g, a tissue uptake at 1 h [1, 8] of 131 ± 26.7 %ID/g and a tissue uptake at 1 h [1, 9] of 2.47 ± 0.14 %ID/g. The tissue uptake at 1 h [1, 10] was 4.84 ± 0.98 %ID/g, the tissue uptake at 1 h [1, 11] was 0.27 ± 0.04 %ID/g and the tissue uptake at 1 h [1, 12] was 12.5 ± 1.87 %ID/g. It also gave a tissue uptake at 1 h [1, 13] of 0.93 ± 0.15 %ID/g and a tissue uptake at 1 h [1, 14] of 7.99 ± 2.08 %ID/g.
`C[C@@H](O)[C@H](NC(=O)C1CSSCC(NC(=O)C(Cc2ccccc2)NC(=O)CNC(=O)CNC(=O)CNC(=O)C(CC(=O)O)NC(=O)[C@@H](CC(=O)O)NC(=O)C(CCCCN)NC(=O)[C@@H](CNC(=O)C[N+](C)(C)Cc2ccc([Si](F)(C(C)(C)C)C(C)(C)C)cc2)NC(=O)CN2CCN(CC(=O)O)CCN(CC(=O)O)CCN(CC(=O)O)CC2)C(=O)N[C@@H](Cc2ccc(O)cc2)C(=O)NC(Cc2c[nH]c3ccccc23)C(=O)N[C@@H](CCCCN)C(=O)N[C@@H]([C@@H](C)O)C(=O)N1)C(=O)O` (stereo partly drawn) (natGa complex, metal not drawn) [[Ga]45] gave an IC50 (SST2) of 4.3 ± 0.06 nM, a tissue uptake at 1 h [1, 2] of 31.6 ± 4.96 %ID/g and a tissue uptake at 1 h [1, 3] of 1.54 ± 0.28 %ID/g. The tissue uptake at 1 h [1, 4] was 0.53 ± 0.23 %ID/g, the tissue uptake at 1 h [1, 5] was 1.81 ± 0.07 %ID/g and the tissue uptake at 1 h [1, 6] was 0.28 ± 0.04 %ID/g. It also gave a tissue uptake at 1 h [1, 7] of 1.27 ± 0.13 %ID/g, a tissue uptake at 1 h [1, 8] of 72.7 ± 7.68 %ID/g and a tissue uptake at 1 h [1, 9] of 1.28 ± 0.11 %ID/g. The tissue uptake at 1 h [1, 10] was 3.34 ± 0.49 %ID/g, the tissue uptake at 1 h [1, 11] was 0.11 ± 0.02 %ID/g and the tissue uptake at 1 h [1, 12] was 11.8 ± 1.36 %ID/g. The tissue uptake at 1 h [1, 13] was 0.56 ± 0.1 %ID/g and the tissue uptake at 1 h [1, 14] was 7.5 ± 0.13 %ID/g.
